*1 amine or outer side, *2 acyl side, *3 side chain or, on linkers, in order; H or OH if unused. Where a SMILES comes first, the peptide text is derived from it. Side-chain parts run from the residue outwards. [ ]: non-standard residue; d: D form. The star is where a group is joined. PEG12 = NCCOCCOCCOCCOCCOCCOCCOCCOCCOCCOCCOCCOCCC(=O)O; γGlu = O=C(O)[C@H](CCC(=O)[*:2])N[*:1]; Stearoyl = CCCCCCCCCCCCCCCCCC(=O)*; Palmitoyl = CCCCCCCCCCCCCCCC(=O)*; Nle = CCCC[C@H](N)C(=O)O; AEEA = NCCOCCOCC(=O)O; Aib = CC(C)(N)C(=O)O
Target: T1, RXFP1 (Homo sapiens, UniProt Q9HBX9)
T1 construct: OVCAR5 cells expressing endogenous RXFP1; endogenous in cells; host or cells: OVCAR5 cells
T1 sequence (Q9HBX9 1-757): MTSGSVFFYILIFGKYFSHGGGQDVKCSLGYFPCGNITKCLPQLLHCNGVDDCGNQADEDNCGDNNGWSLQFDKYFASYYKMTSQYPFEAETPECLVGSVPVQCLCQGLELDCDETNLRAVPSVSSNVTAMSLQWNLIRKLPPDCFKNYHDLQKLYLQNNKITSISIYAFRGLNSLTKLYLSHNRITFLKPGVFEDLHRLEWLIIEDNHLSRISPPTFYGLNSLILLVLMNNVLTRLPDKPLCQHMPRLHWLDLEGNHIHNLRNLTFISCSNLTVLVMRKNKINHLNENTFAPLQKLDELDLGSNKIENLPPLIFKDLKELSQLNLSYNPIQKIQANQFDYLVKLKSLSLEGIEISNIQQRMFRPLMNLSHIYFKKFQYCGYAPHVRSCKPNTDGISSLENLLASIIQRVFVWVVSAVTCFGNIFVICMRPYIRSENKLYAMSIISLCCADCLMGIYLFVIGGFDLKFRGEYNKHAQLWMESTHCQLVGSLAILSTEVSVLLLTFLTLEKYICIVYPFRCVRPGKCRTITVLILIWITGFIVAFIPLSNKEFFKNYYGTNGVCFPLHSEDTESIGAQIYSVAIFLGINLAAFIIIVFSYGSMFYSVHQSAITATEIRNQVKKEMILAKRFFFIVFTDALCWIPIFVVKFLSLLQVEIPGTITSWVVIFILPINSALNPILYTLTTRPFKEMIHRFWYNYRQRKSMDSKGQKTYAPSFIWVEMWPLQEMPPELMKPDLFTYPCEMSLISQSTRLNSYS
Assay: OVCAR5 cAMP assay (HTRF), RXFP1 agonist activity
Format: cell-based
Conditions: for Emax: OVCAR-5, maximal cAMP relative to H2-relaxin maximum (100%), read-out: EMax, OVCAR 5 cells (cAMP); for EC50: OVCAR5 cells, cAMP HTRF, read-out: EC50 (nM), OVCAR 5 cells (cAMP)
Method in brief: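 OVCAR5 cells (endogenous RXFP1) pretreated 40 min at 37° C with 1 mM IBMX, then exposed to peptides in serum-free medium for 30 min at 37° C. Lysate cAMP read by HTRF; EC50 from variable-slope sigmoidal fit; Emax as % of H2-relaxin maximal cAMP in same run.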

| Structure (SMILES) | Emax | EC50 |
| --- | --- | --- |
| CCCCCCCCCCCCCCCCCC(=O)N[C@@H](CCC(=O)N[C@@H](CCC(=O)N[C@@H](CCC(=O)NCCOCCOCC(=O)NCCOCCOCC(=O)NCCCC[C@H](NC(=O)[C@H](CCCCN)NC(=O)[C@H](CCCNC(=N)N)NC(=O)C(C)(C)NC(=O)[C@H](CO)NC(=O)[C@H](Cc1c[nH]c2ccccc12)NC(=O)[C@@H](NC(=O)[C@H](CO)NC(=O)[C@H](CCCC)NC(=O)CNC(=O)[C@H](CCC(=O)O)NC(=O)C(C)(C)NC(=O)C(C)(C)NC(=O)[C@@H](NC(=O)[C@H](CCC(N)=O)NC(=O)[C@H](C)NC(=O)[C@H](CCCNC(=N)N)NC(=O)[C@@H](NC(=O)[C@H](CCCCN)NC(=O)[C@H](CCC(=O)O)NC(=O)[C@H](CCCNC(=N)N)NC(=O)CNC(=O)[C@H](CCC(=O)O)NC(=O)[C@H](CC(C)C)NC(C)=O)C(C)C)[C@@H](C)CC)[C@@H](C)O)C(N)=O)C(=O)O)C(=O)O)C(=O)O [compound 67] (Ac-LEGREKVRAQI[Aib][Aib]EG[Nle]STWS[Aib]RKK([AEEA-AEEA-γGlu-γGlu-γGlu-Stearoyl])-NH2) | 89% | – |
| CCCCCCCCCCCCCCCCCC(=O)N[C@@H](CCC(=O)N[C@@H](CCC(=O)N[C@@H](CCC(=O)NCCOCCOCC(=O)NCCOCCOCC(=O)NCCCC[C@H](NC(=O)[C@H](CCCCN)NC(=O)[C@H](CCCCN)NC(=O)[C@H](CCCNC(=N)N)NC(=O)C(C)(C)NC(=O)[C@H](CO)NC(=O)[C@H](Cc1c[nH]c2ccccc12)NC(=O)[C@@H](NC(=O)[C@H](CO)NC(=O)[C@H](CCC(=O)O)NC(=O)CNC(=O)[C@H](CCC(=O)O)NC(=O)C(C)(C)NC(=O)C(C)(C)NC(=O)[C@@H](NC(=O)[C@H](CCC(N)=O)NC(=O)[C@H](C)NC(=O)[C@H](CCCNC(=N)N)NC(=O)[C@@H](NC(=O)[C@H](CCCCN)NC(=O)[C@H](CCC(=O)O)NC(=O)[C@H](CCCNC(=N)N)NC(=O)CNC(=O)[C@H](CCC(=O)O)NC(=O)[C@H](CC(C)C)NC(C)=O)C(C)C)[C@@H](C)CC)[C@@H](C)O)C(N)=O)C(=O)O)C(=O)O)C(=O)O [compound 68] (Ac-LEGREKVRAQI[Aib][Aib]EGESTWS[Aib]RKKK([AEEA-AEEA-γGlu-γGlu-γGlu-Stearoyl])-NH2) | 94% | – |
| CCCCCCCCCCCCCCCCCC(=O)N[C@@H](CCC(=O)N[C@@H](CCC(=O)N[C@@H](CCC(=O)NCCOCCOCC(=O)NCCOCCOCC(=O)NCCCC[C@H](NC(=O)[C@H](CCCCN)NC(=O)[C@H](CCCCN)NC(=O)[C@H](CCCNC(=N)N)NC(=O)C(C)(C)NC(=O)[C@H](CO)NC(=O)[C@H](Cc1c[nH]c2ccccc12)NC(=O)[C@@H](NC(=O)[C@H](CO)NC(=O)[C@H](CCCC)NC(=O)CNC(=O)[C@H](CCC(=O)O)NC(=O)C(C)(C)NC(=O)C(C)(C)NC(=O)[C@@H](NC(=O)[C@H](CCC(N)=O)NC(=O)C(C)(C)NC(=O)[C@H](CCCNC(=N)N)NC(=O)[C@@H](NC(=O)[C@H](CCCCN)NC(=O)[C@H](CCC(=O)O)NC(=O)[C@H](CCCNC(=N)N)NC(=O)CNC(=O)[C@H](CCC(=O)O)NC(=O)[C@H](CC(C)C)NC(C)=O)C(C)C)[C@@H](C)CC)[C@@H](C)O)C(N)=O)C(=O)O)C(=O)O)C(=O)O [compound 69] (Ac-LEGREKVR[Aib]QI[Aib][Aib]EG[Nle]STWS[Aib]RKKK([AEEA-AEEA-γGlu-γGlu-γGlu-Stearoyl])-NH2) | 87% | – |
| CCCCCCCCCCCCCCCCCC(=O)N[C@@H](CCC(=O)N[C@@H](CCC(=O)N[C@@H](CCC(=O)NCCOCCOCC(=O)NCCOCCOCC(=O)NCCCC[C@H](NC(=O)[C@H](CCCCN)NC(=O)[C@H](CCCCN)NC(=O)[C@H](CCCNC(=N)N)NC(=O)C(C)(C)NC(=O)[C@H](CO)NC(=O)[C@H](Cc1c[nH]c2ccccc12)NC(=O)[C@@H](NC(=O)[C@H](CO)NC(=O)[C@H](CCC(N)=O)NC(=O)CNC(=O)[C@H](CCC(=O)O)NC(=O)C(C)(C)NC(=O)C(C)(C)NC(=O)[C@@H](NC(=O)[C@H](CCC(N)=O)NC(=O)[C@H](C)NC(=O)[C@H](CCCNC(=N)N)NC(=O)[C@@H](NC(=O)[C@H](CCCCN)NC(=O)[C@H](CCC(=O)O)NC(=O)[C@H](CCCNC(=N)N)NC(=O)CNC(=O)[C@H](CCC(=O)O)NC(=O)[C@H](CC(C)C)NC(C)=O)C(C)C)[C@@H](C)CC)[C@@H](C)O)C(N)=O)C(=O)O)C(=O)O)C(=O)O [compound 70] (Ac-LEGREKVRAQI[Aib][Aib]EGQSTWS[Aib]RKKK([AEEA-AEEA-γGlu-γGlu-γGlu-Stearoyl])-NH2) | 86% | – |

Continued, values first:

| Emax | EC50 | Structure (SMILES) |
| --- | --- | --- |
| 83% | – | CCCCCCCCCCCCCCCC(=O)N[C@@H](CCC(=O)N[C@@H](CCC(=O)N[C@@H](CCC(=O)NCCOCCOCCOCCOCCOCCOCCOCCOCCOCCOCCOCCOCCC(=O)NCCCC[C@H](NC(=O)[C@H](CCCCNC(C)=O)NC(=O)[C@H](CCCCN)NC(=O)[C@H](CCCNC(=N)N)NC(=O)C(C)(C)NC(=O)[C@H](CO)NC(=O)[C@H](Cc1c[nH]c2ccccc12)NC(=O)[C@@H](NC(=O)[C@H](CO)NC(=O)[C@H](CCCC)NC(=O)CNC(=O)[C@H](CCC(=O)O)NC(=O)C(C)(C)NC(=O)C(C)(C)NC(=O)[C@@H](NC(=O)[C@H](CCCCNC(C)=O)NC(=O)[C@H](C)NC(=O)[C@H](CCCNC(=N)N)NC(=O)[C@@H](NC(=O)[C@H](CCCCN)NC(=O)[C@H](CCC(=O)O)NC(=O)[C@H](CCCNC(=N)N)NC(=O)CNC(=O)[C@H](CCC(=O)O)NC(=O)[C@H](CC(C)C)NC(C)=O)C(C)C)[C@@H](C)CC)[C@@H](C)O)C(N)=O)C(=O)O)C(=O)O)C(=O)O [compound 66] (Ac-LEGREKVRAK(Ac)I[Aib][Aib]EG[Nle]STWS[Aib]RKK(Ac)K([PEG12-γGlu-γGlu-γGlu-Palmitoyl])-NH2) |
| 87% | – | CCCCCCCCCCCCCCCCCC(=O)N[C@@H](CCC(=O)N[C@@H](CCC(=O)N[C@@H](CCC(=O)NCCOCCOCC(=O)NCCOCCOCC(=O)NCCCC[C@H](NC(=O)[C@H](CCCCN)NC(=O)[C@H](CCCCN)NC(=O)[C@H](CCCNC(=N)N)NC(=O)C(C)(C)NC(=O)[C@H](CO)NC(=O)[C@H](Cc1c[nH]c2ccccc12)NC(=O)[C@@H](NC(=O)[C@H](CO)NC(=O)[C@H](CCCC)NC(=O)CNC(=O)[C@H](CCC(=O)O)NC(=O)C(C)(C)NC(=O)C(C)(C)NC(=O)[C@@H](NC(=O)[C@H](CCC(N)=O)NC(=O)[C@H](C)NC(=O)[C@H](CCCNC(=N)N)NC(=O)[C@@H](NC(=O)[C@H](CCCCN)NC(=O)[C@H](CCC(=O)O)NC(=O)[C@H](CCCNC(=N)N)NC(=O)CNC(=O)[C@H](CCC(=O)O)NC(=O)[C@H](CC(C)C)NC(C)=O)C(C)C)[C@@H](C)CC)[C@@H](C)O)C(N)=O)C(=O)O)C(=O)O)C(=O)O [compound 71] (Ac-LEGREKVRAQI[Aib][Aib]EG[Nle]STWS[Aib]RKKK([AEEA-AEEA-γGlu-γGlu-γGlu-Stearoyl])-NH2) |
| 93% | 0.17 nM | CCCCCCCCCCCCCCCCCC(=O)N[C@@H](CCC(=O)N[C@@H](CCC(=O)N[C@@H](CCC(=O)NCCOCCOCC(=O)NCCOCCOCC(=O)NCCCC[C@H](NC(=O)[C@H](CCCCN)NC(=O)[C@H](CCCCNC(C)=O)NC(=O)[C@H](CCCNC(=N)N)NC(=O)C(C)(C)NC(=O)[C@H](CO)NC(=O)[C@H](Cc1c[nH]c2ccccc12)NC(=O)[C@@H](NC(=O)[C@H](CO)NC(=O)[C@H](CCCC)NC(=O)CNC(=O)[C@H](CCC(=O)O)NC(=O)C(C)(C)NC(=O)C(C)(C)NC(=O)[C@@H](NC(=O)[C@H](CCCCNC(C)=O)NC(=O)[C@H](C)NC(=O)[C@H](CCCNC(=N)N)NC(=O)[C@@H](NC(=O)[C@H](CCCCN)NC(=O)[C@H](CCC(=O)O)NC(=O)[C@H](CCCNC(=N)N)NC(=O)CNC(=O)[C@H](CCC(=O)O)NC(=O)[C@H](CC(C)C)NC(C)=O)C(C)C)[C@@H](C)CC)[C@@H](C)O)C(N)=O)C(=O)O)C(=O)O)C(=O)O [compound 72] (Ac-LEGREKVRAK(Ac)I[Aib][Aib]EG[Nle]STWS[Aib]RK(Ac)KK([AEEA-AEEA-γGlu-γGlu-γGlu-Stearoyl])-NH2) |
| 90% | 0.12 nM | CCCCCCCCCCCCCCCCCC(=O)N[C@@H](CCC(=O)N[C@@H](CCC(=O)N[C@@H](CCC(=O)NCCOCCOCC(=O)NCCOCCOCC(=O)NCCCC[C@H](NC(=O)[C@H](CCCCN)NC(=O)[C@H](CCCNC(=N)N)NC(=O)C(C)(C)NC(=O)[C@H](CO)NC(=O)[C@H](Cc1c[nH]c2ccccc12)NC(=O)[C@@H](NC(=O)[C@H](CO)NC(=O)[C@H](CCCC)NC(=O)CNC(=O)[C@H](CCC(=O)O)NC(=O)C(C)(C)NC(=O)C(C)(C)NC(=O)[C@@H](NC(=O)[C@H](CCCCNC(C)=O)NC(=O)[C@H](C)NC(=O)[C@H](CCCNC(=N)N)NC(=O)[C@@H](NC(=O)[C@H](CCCCN)NC(=O)[C@H](CCC(=O)O)NC(=O)[C@H](CCCNC(=N)N)NC(=O)CNC(=O)[C@H](CCC(=O)O)NC(=O)[C@H](CC(C)C)NC(C)=O)C(C)C)[C@@H](C)CC)[C@@H](C)O)C(N)=O)C(=O)O)C(=O)O)C(=O)O [compound 73] (Ac-LEGREKVRAK(Ac)I[Aib][Aib]EG[Nle]STWS[Aib]RKK([AEEA-AEEA-γGlu-γGlu-γGlu-Stearoyl])-NH2) |
